According to publication PMC6152318 (Molecules : A Journal of Synthetic Chemistry and Natural …, 2017):

Key:
[1] = target: T1, Human serum albumin (HSA) (Homo sapiens, UniProt P02768); assay: Binding constants by quenching of HSA tryptophan fluorescence; settings: for K ± S.D. (binding constant): 6 μM HSA, pH 7.4, 25 °C, excitation 295 nm, 1:1 binding model
T1 construct: Fatty acid free HSA and warfarin sodium were purchased from Sigma-Aldrich; purchased Sigma-Aldrich (St. Louis, MO, USA)
Description: In all experiments, the final co-solvent concentration was held below 5%. This was done to prevent conformational changes of HSA due to changes in dielectric constant of the solvent.
Steady-state fluorescence was recorded using a thermostated Safas Xenius fluorometer (Safas Monaco, Monaco) with an integrated stirrer. All studies were performed at 25 ± 1 °C using 10 nm excitation and emission slit widths. […] Measurements were performed in duplicate.
A stock solution of a single ligand was gradually added via syringe to a 2 mL of a 6 μM HSA solution placed in a quartz cell. Measurements were conducted at the excitation wavelength of 295 nm and emission was recorded in the 310–400 nm range enabling calculations of corresponding binding constants. […] Binding constants were determined according to Dufour and Dangles. A Scatchard analysis was performed assuming n identical binding sites on HSA. Values for binding constant (K), molar fluorescence intensity of the complex (f), and the stoichiometric coefficient (n) were estimated by fitting the F vs. Lt curves against Equations (1) and (2) using a least-square regression program Scientist (MicroMath, Salt Lake City, UT, USA), where F is fluorescence intensity, [L] the free ligand concentration, [Lt] the total ligand concentration, and c the total albumin concentration. […] In all cases, the inner filter effect was taken into account by using absorption of free ligands at excitation and emission wavelengths (εex and εem, respectively) (Equation (3)), where Fcorr is the fluorescence corrected for the inner filter effect, F0 is the measured fluorescence, ε is the sum of εex and εem, l = 0.65 is the optical path and c is the flavonoid concentration. (1) Fcorr=fcnK[L]/1+K[L] (2) [Lt]=[L](1+ncK/1+K[L]) (3) F0=Fcorr×10^−εlc

[2] = target: Human serum albumin (HSA) IIA binding site (Homo sapiens, UniProt P02768); assay: Flavonoid fluorescence (excitation 450 nm) on HSA pre-saturated with warfarin (simultaneous binding / displacement)
Description: HSA was freshly dissolved in Dulbecco’s phosphate-buffered saline pH 7.4 (137 mM sodium chloride, 2.7 mM potassium chloride, 8.1 mM disodium hydrogen phosphate, 1.47 mM potassium dihydrogen phosphate) immediately before measurements. […]. In all experiments, the final co-solvent concentration was held below 5%. This was done to prevent conformational changes of HSA due to changes in dielectric constant of the solvent.
Steady-state fluorescence was recorded using a thermostated Safas Xenius fluorometer (Safas Monaco, Monaco) with an integrated stirrer. All studies were performed at 25 ± 1 °C using 10 nm excitation and emission slit widths. […] Higher concentrations of HSA and ligands were not used due to poor solubility of ligands and high influence of ligand absorption. Measurements were performed in duplicate.

HSA [3] = settings: of its intensity without warfarin; cited from earlier work
[4] = Flavonoid fluorescence in buffer solution without HSA
HSA [5] = settings: cited from earlier work
[6] = HSA 0-92% saturated with warfarin

Sequence of Human serum albumin (HSA) IIA binding site (P02768 25-609): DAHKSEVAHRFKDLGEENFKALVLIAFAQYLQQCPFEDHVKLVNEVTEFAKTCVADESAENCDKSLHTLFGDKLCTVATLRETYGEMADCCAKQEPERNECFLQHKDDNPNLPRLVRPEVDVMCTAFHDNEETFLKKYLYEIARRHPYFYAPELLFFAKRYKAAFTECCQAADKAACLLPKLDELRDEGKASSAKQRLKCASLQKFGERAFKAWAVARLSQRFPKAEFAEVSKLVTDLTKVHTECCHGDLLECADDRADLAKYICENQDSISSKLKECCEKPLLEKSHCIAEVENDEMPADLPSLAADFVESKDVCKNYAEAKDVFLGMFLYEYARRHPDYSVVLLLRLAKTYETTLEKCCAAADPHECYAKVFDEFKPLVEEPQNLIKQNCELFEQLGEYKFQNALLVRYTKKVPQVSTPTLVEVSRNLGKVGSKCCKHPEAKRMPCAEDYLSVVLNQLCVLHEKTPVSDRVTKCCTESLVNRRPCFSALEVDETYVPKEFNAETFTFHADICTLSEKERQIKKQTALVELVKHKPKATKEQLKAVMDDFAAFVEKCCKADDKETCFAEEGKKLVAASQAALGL
T1 sequence (P02768 25-609): as above

## O=c1cc(-c2ccc(O)c(O)c2)oc2cc(O)c([C@@H]3O[C@H](CO)[C@@H](O)[C@H](O)[C@H]3O)c(O)c12 [Isoorientin]
[1]
  Kd: 21.9 µM

## O=c1c(O)c(-c2ccc(O)c(O)c2)oc2cc(O)cc(O)c12 [Quercetin]
[1]
  Kd: 6.94 µM
[2]; [6]
  Effect of warfarin on flavonoid Fmax (maximum fluorescence): slightly decreased
  Effect of warfarin on flavonoid cmax (concentration needed to achieve Fmax): slight increase
[2]; flavonoid 2,00 uM, 0% occupied HSA
  Absolute fluorescence intensity: 14,1006
[2]; flavonoid 2,00 uM, 22% occupied HSA
  Absolute fluorescence intensity: 14,3985
[2]; flavonoid 2,00 uM, 38% occupied HSA
  Absolute fluorescence intensity: 15,6001
[2]; flavonoid 2,00 uM, 63% occupied HSA
  Absolute fluorescence intensity: 14,9774
[2]; flavonoid 2,00 uM, 92% occupied HSA
  Absolute fluorescence intensity: 12,2760
[2]; flavonoid 4,00 uM, 0% occupied HSA
  Absolute fluorescence intensity: 18,1924
[2]; flavonoid 4,00 uM, 22% occupied HSA
  Absolute fluorescence intensity: 19,1798
[2]; flavonoid 4,00 uM, 38% occupied HSA
  Absolute fluorescence intensity: 20,1073
[2]; flavonoid 4,00 uM, 63% occupied HSA
  Absolute fluorescence intensity: 20,0687
[2]; flavonoid 4,00 uM, 92% occupied HSA
  Absolute fluorescence intensity: 16,0796
[2]; flavonoid 6,00 uM, 0% occupied HSA
  Absolute fluorescence intensity: 21,7864
[2]; flavonoid 6,00 uM, 22% occupied HSA
  Absolute fluorescence intensity: 22,8342
[2]; flavonoid 6,00 uM, 38% occupied HSA
  Absolute fluorescence intensity: 23,2658
[2]; flavonoid 6,00 uM, 63% occupied HSA
  Absolute fluorescence intensity: 23,0451
[2]; flavonoid 6,00 uM, 92% occupied HSA
  Absolute fluorescence intensity: 18,9492
[2]; flavonoid 7,99 uM, 0% occupied HSA
  Absolute fluorescence intensity: 25,2012
[2]; flavonoid 7,99 uM, 22% occupied HSA
  Absolute fluorescence intensity: 26,8970
[2]; flavonoid 7,99 uM, 38% occupied HSA
  Absolute fluorescence intensity: 26,0412
[2]; flavonoid 7,99 uM, 63% occupied HSA
  Absolute fluorescence intensity: 25,4057
[2]; flavonoid 7,99 uM, 92% occupied HSA
  Absolute fluorescence intensity: 21,2821
[2]; flavonoid 11,98 uM, 0% occupied HSA
  Absolute fluorescence intensity: 30,3340
[2]; flavonoid 11,98 uM, 22% occupied HSA
  Absolute fluorescence intensity: 31,0510
[2]; flavonoid 11,98 uM, 38% occupied HSA
  Absolute fluorescence intensity: 30,0611
[2]; flavonoid 11,98 uM, 63% occupied HSA
  Absolute fluorescence intensity: 29,3172
[2]; flavonoid 11,98 uM, 92% occupied HSA
  Absolute fluorescence intensity: 25,1156
[2]; flavonoid 15,97 uM, 0% occupied HSA
  Absolute fluorescence intensity: 33,9655
[2]; flavonoid 15,97 uM, 22% occupied HSA
  Absolute fluorescence intensity: 33,9646
[2]; flavonoid 15,97 uM, 38% occupied HSA
  Absolute fluorescence intensity: 33,4123
[2]; flavonoid 15,97 uM, 63% occupied HSA
  Absolute fluorescence intensity: 32,2916
[2]; flavonoid 15,97 uM, 92% occupied HSA
  Absolute fluorescence intensity: 28,2109
[2]; flavonoid 23,93 uM, 0% occupied HSA
  Absolute fluorescence intensity: 38,4893
[2]; flavonoid 23,93 uM, 22% occupied HSA
  Absolute fluorescence intensity: 37,6942
[2]; flavonoid 23,93 uM, 38% occupied HSA
  Absolute fluorescence intensity: 37,3757
[2]; flavonoid 23,93 uM, 63% occupied HSA
  Absolute fluorescence intensity: 36,2415
[2]; flavonoid 23,93 uM, 92% occupied HSA
  Absolute fluorescence intensity: 32,2392
[2]; flavonoid 31,87 uM, 0% occupied HSA
  Absolute fluorescence intensity: 40,5581
[2]; flavonoid 31,87 uM, 22% occupied HSA
  Absolute fluorescence intensity: 39,7022
[2]; flavonoid 31,87 uM, 38% occupied HSA
  Absolute fluorescence intensity: 39,4192
[2]; flavonoid 31,87 uM, 63% occupied HSA
  Absolute fluorescence intensity: 37,9878
[2]; flavonoid 31,87 uM, 92% occupied HSA
  Absolute fluorescence intensity: 34,7552
[2]; flavonoid 39,80 uM, 0% occupied HSA
  Absolute fluorescence intensity: 41,9281
[2]; flavonoid 39,80 uM, 22% occupied HSA
  Absolute fluorescence intensity: 41,0854
[2]; flavonoid 39,80 uM, 38% occupied HSA
  Absolute fluorescence intensity: 41,0246
[2]; flavonoid 39,80 uM, 63% occupied HSA
  Absolute fluorescence intensity: 39,4685
[2]; flavonoid 39,80 uM, 92% occupied HSA
  Absolute fluorescence intensity: 36,6753
[2]; flavonoid 47,71 uM, 0% occupied HSA
  Absolute fluorescence intensity: 41,6617
[2]; flavonoid 47,71 uM, 22% occupied HSA
  Absolute fluorescence intensity: 41,5821
[2]; flavonoid 47,71 uM, 38% occupied HSA
  Absolute fluorescence intensity: 41,3733
[2]; flavonoid 47,71 uM, 63% occupied HSA
  Absolute fluorescence intensity: 40,4449
[2]; flavonoid 47,71 uM, 92% occupied HSA
  Absolute fluorescence intensity: 37,3158
[2]; flavonoid 63,49 uM, 0% occupied HSA
  Absolute fluorescence intensity: 40,9892
[2]; flavonoid 63,49 uM, 22% occupied HSA
  Absolute fluorescence intensity: 40,4660
[2]; flavonoid 63,49 uM, 38% occupied HSA
  Absolute fluorescence intensity: 40,7086
[2]; flavonoid 63,49 uM, 63% occupied HSA
  Absolute fluorescence intensity: 39,7702
[2]; flavonoid 63,49 uM, 92% occupied HSA
  Absolute fluorescence intensity: 38,0617
[2]; flavonoid 79,21 uM, 0% occupied HSA
  Absolute fluorescence intensity: 39,3310
[2]; flavonoid 79,21 uM, 22% occupied HSA
  Absolute fluorescence intensity: 39,3997
[2]; flavonoid 79,21 uM, 38% occupied HSA
  Absolute fluorescence intensity: 39,3849
[2]; flavonoid 79,21 uM, 63% occupied HSA
  Absolute fluorescence intensity: 38,8686
[2]; flavonoid 79,21 uM, 92% occupied HSA
  Absolute fluorescence intensity: 37,3045
[2]; flavonoid 98,77 uM, 0% occupied HSA
  Absolute fluorescence intensity: 37,4633
[2]; flavonoid 98,77 uM, 22% occupied HSA
  Absolute fluorescence intensity: 37,3641
[2]; flavonoid 98,77 uM, 38% occupied HSA
  Absolute fluorescence intensity: 37,6865
[2]; flavonoid 98,77 uM, 63% occupied HSA
  Absolute fluorescence intensity: 37,3324
[2]; flavonoid 98,77 uM, 92% occupied HSA
  Absolute fluorescence intensity: 36,3823
HSA [3]
  Relative STD-NMR signal intensity in presence of warfarin: ~ 40%
[4]; flavonoid 2,00 uM
  Absolute fluorescence intensity: 0,8077
[4]; flavonoid 4,00 uM
  Absolute fluorescence intensity: 0,9540
[4]; flavonoid 7,99 uM
  Absolute fluorescence intensity: 1,1279
[4]; flavonoid 15,97 uM
  Absolute fluorescence intensity: 1,3080
[4]; flavonoid 31,87 uM
  Absolute fluorescence intensity: 1,5574
[4]; flavonoid 47,71 uM
  Absolute fluorescence intensity: 1,7477
[4]; flavonoid 63,49 uM
  Absolute fluorescence intensity: 2,0820
[4]; flavonoid 79,21 uM
  Absolute fluorescence intensity: 2,2472
[4]; flavonoid 98,77 uM
  Absolute fluorescence intensity: 2,4600

## O=c1c(O[C@@H]2O[C@H](CO)[C@@H](O)[C@H](O)[C@H]2O)c(-c2ccc(O)c(O)c2)oc2cc(O)cc(O)c12 [Isoquercitrin]
[1]
  Kd: 22.4 µM

## C[C@@H]1O[C@@H](OC[C@H]2O[C@@H](Oc3c(-c4ccc(O)c(O)c4)oc4cc(O)cc(O)c4c3=O)[C@H](O)[C@@H](O)[C@@H]2O)[C@H](O)[C@H](O)[C@H]1O [Rutin]
[1]
  Kd: 34.2 µM

## O=C(O)[C@H]1O[C@@H](Oc2c(-c3ccc(O)c(O)c3)oc3cc(O)cc(O)c3c2=O)[C@H](O)[C@@H](O)[C@@H]1O
[1]
  K ± S.D. (binding constant): 5.36 ± 0.13 × 10^4 M^−1

## CC(=O)CC(c1ccccc1)c1c(O)c2ccccc2oc1=O (stereo not shown) [Warfarin]
HSA [5]
  Fraction of warfarin in blood bound to HSA: > 99%

## O=c1c(O[C@@H]2O[C@H](CO)[C@H](O)[C@H](O)[C@H]2O)c(-c2ccc(O)c(O)c2)oc2cc(O)cc(O)c12 [Hyperoside]
[1]
  Kd: 30.9 µM

## O=c1cc(-c2ccc(O)c(O)c2)oc2cc(O[C@@H]3O[C@H](CO)[C@@H](O)[C@H](O)[C@H]3O)cc(O)c12 [Cynaroside]
[1]
  K ± S.D. (binding constant): 4.20 ± 0.25 × 10^4 M^−1
